Source: patent publication US6737383B1, “Herbicidal oxadiazolidines” (priority 1999, dated 2004)

Legend:
surinam grass = test: Test B pre/postemergence surinam grass; format: in vivo, Brachiaria decumbens; settings: for B. signalgrass plant response rating: scale of 0 to 10 where 0 is no effect and 10 is complete control
In short: (§1)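 Test chemicals in a non-phytotoxic solvent mixture with surfactant were sprayed preemergence onto planted seeds and postemergence onto plants 2 to 18 cm tall (1- to 4-leaf stage). After twelve to sixteen days in a greenhouse, injury was visually rated against untreated controls from 0 (no effect) to 10 (complete control).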

pigweed = test: Test B pre/postemergence pigweed; format: in vivo, Amaranthus retroflexus; settings: for Redroot pigweed plant response rating: scale of 0 to 10 where 0 is no effect and 10 is complete control
In short: as §1

rice = test: Test B flood test rice; format: in vivo, Oryza sativa
In short: (§2)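 Plants were grown to the 2-leaf stage before treatment with test chemical, then held in a greenhouse for twelve to sixteen days. Injury was visually rated against untreated controls on a 0–10 scale, where 0 is no effect and 10 is complete control.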

wild oat = test: Test B pre/postemergence wild oat; format: in vivo, Avena fatua; settings: for Wild oats plant response rating: scale of 0 to 10 where 0 is no effect and 10 is complete control
In short: as §1

duck salad = test: Test B flood test duck salad; format: in vivo, Heteranthera limosa
In short: as §2

blackgrass = test: Test B pre/postemergence blackgrass; format: in vivo, Alopecurus myosuroides; settings: for Blackgrass plant response rating: scale of 0 to 10 where 0 is no effect and 10 is complete control
In short: as §1

cocklebur = test: Test B pre/postemergence cocklebur; format: in vivo, Xanthium strumarium; settings: for Cocklebur plant response rating: scale of 0 to 10 where 0 is no effect and 10 is complete control
In short: as §1

wheat = test: Test B pre/postemergence wheat; format: in vivo, Triticum aestivum; settings: for Wheat plant response rating: scale of 0 to 10 where 0 is no effect and 10 is complete control
In short: as §1

purple nutsedge = test: Test B pre/postemergence purple nutsedge; format: in vivo, Cyperus rotundus; settings: for Nutsedge plant response rating: scale of 0 to 10 where 0 is no effect and 10 is complete control
In short: as §1

morningglory = test: Test B pre/postemergence morningglory; format: in vivo, Ipomoea hederacea; settings: for Morningglory plant response rating: scale of 0 to 10 where 0 is no effect and 10 is complete control
In short: as §1

sugar beet = test: Test B pre/postemergence sugar beet; format: in vivo, Beta vulgaris; settings: for Sugarbeets plant response rating: scale of 0 to 10 where 0 is no effect and 10 is complete control
In short: as §1

giant foxtail = test: Test B pre/postemergence giant foxtail; format: in vivo, Setaria faberii; settings: for Giant foxtail plant response rating: scale of 0 to 10 where 0 is no effect and 10 is complete control
In short: as §1

velvetleaf = test: Test B pre/postemergence velvetleaf; format: in vivo, Abutilon theophrasti; settings: for Velvetleaf plant response rating: scale of 0 to 10 where 0 is no effect and 10 is complete control
In short: as §1

crabgrass = test: Test B pre/postemergence crabgrass; format: in vivo, Digitaria sanguinalis; settings: for Crabgrass plant response rating: scale of 0 to 10 where 0 is no effect and 10 is complete control
In short: as §1

bamyardgrass = test: Test B flood test barnyardgrass; format: in vivo, Echinochloa crus-galli
In short: as §2

[1] = Postemergence, Rate 125 g/ha, scale 0 to 10, 0 is no effect, 10 is complete control
[2] = Postemergence, Rate 250 g/ha, scale 0 to 10, 0 is no effect, 10 is complete control
[3] = Preemergence, Rate 62 g/ha, scale 0 to 10 (0 no effect, 10 complete control)
[4] = Rate 500 g/ha, Postemergence, scale 0 to 10, 0 no effect, 10 complete control
[5] = Rate 62 g/ha, flood test species, Pre-emergence, visual evaluation after twelve to sixteen days
[6] = Rate 125 g/ha, under heading Pre-emergence, flood test species, visual evaluation after twelve to sixteen days
[7] = Rate 250 g/ha, Pre-emergence, flood-test species, scale 0 to 10, 0 is no effect, 10 is complete control
[8] = Rate 500 g/ha, Pre-emergence, flood test species, scale 0 to 10 (0 no effect, 10 complete control)

## CC1CC1n1c(=O)on(C(=O)N(c2ccc(F)cc2)C(C)C)c1=O (centres unmarked) [Compound 371]
Surinam grass; [1]
  Plant response rating, B. signalgrass: 0
Surinam grass; [2]
  Plant response rating, B. signalgrass: 3
Surinam grass; [3]
  Plant response rating, B. signalgrass: 0
Surinam grass; Preemergence, Rate 125 g/ha
  B. signalgrass plant response rating (0 to 10 scale, 0 is no effect, 10 is complete control): 2
Surinam grass; Preemergence, Rate 250 g/ha
  B. signalgrass plant response rating: 2
Surinam grass; Preemergence, Rate 500 g/ha
  B. signalgrass plant response rating: 4
Surinam grass; Rate 62 g/ha, Postemergence
  B. signalgrass plant response rating: 0
Surinam grass; [4]
  Plant response rating, B. signalgrass: 6
pigweed; [1]
  Plant response rating, Redroot pigweed: 0
pigweed; [2]
  Plant response rating, Redroot pigweed: 2
pigweed; [3]
  Plant response rating, Redroot pigweed: 4
pigweed; Preemergence, Rate 125 g/ha
  Redroot pigweed plant response rating (0 to 10 scale): 10
pigweed; Preemergence, Rate 250 g/ha
  Redroot pigweed plant response rating: 10
pigweed; Preemergence, Rate 500 g/ha
  Redroot pigweed plant response rating: 10
pigweed; Rate 62 g/ha, Postemergence
  Redroot pigweed plant response rating: 0
pigweed; [4]
  Plant response rating, Redroot pigweed: 5
rice; [5]
  Plant response rating, Rice (0 to 10 scale, 0 is no effect, 10 is complete control): 0
rice; [6]
  Rice plant response rating (0 to 10 scale, 0 is no effect, 10 is complete control): 0
rice; [7]
  Rice plant response rating: 0
rice; [8]
  Rice plant response rating: 5
Wild oat; [1]
  Plant response rating, Wild oats: 0
Wild oat; [2]
  Plant response rating, Wild oats: 3
Wild oat; [3]
  Plant response rating, Wild oats: 0
Wild oat; Preemergence, Rate 125 g/ha
  Wild oats plant response rating (0 to 10 scale): 3
Wild oat; Preemergence, Rate 250 g/ha
  Wild oats plant response rating: 3
Wild oat; Preemergence, Rate 500 g/ha
  Wild oats plant response rating: 6
Wild oat; Rate 62 g/ha, Postemergence
  Wild oats plant response rating: 0
Wild oat; [4]
  Plant response rating, Wild oats: 4
Duck salad; [5]
  Plant response rating, Ducksalad (0 to 10 scale, 0 is no effect, 10 is complete control): 0
Duck salad; [6]
  Ducksalad plant response rating (0 to 10 scale, 0 is no effect, 10 is complete control): 0
Duck salad; [7]
  Ducksalad plant response rating: 0
Duck salad; [8]
  Ducksalad plant response rating: 2
blackgrass; [1]
  Plant response rating, Blackgrass: 2
blackgrass; [2]
  Plant response rating, Blackgrass: 6
blackgrass; [3]
  Plant response rating, Blackgrass: 5
blackgrass; Preemergence, Rate 125 g/ha
  Blackgrass plant response rating (0 to 10 scale): 9
blackgrass; Preemergence, Rate 250 g/ha
  Blackgrass plant response rating: 10
blackgrass; Preemergence, Rate 500 g/ha
  Blackgrass plant response rating: 10
blackgrass; Rate 62 g/ha, Postemergence
  Blackgrass plant response rating: 2
blackgrass; [4]
  Plant response rating, Blackgrass: 8
cocklebur; [1]
  Plant response rating, Cocklebur: 0
cocklebur; [2]
  Plant response rating, Cocklebur: 0
cocklebur; [3]
  Plant response rating, Cocklebur: 0
cocklebur; Preemergence, Rate 125 g/ha
  Cocklebur plant response rating (0 to 10 scale): 0
cocklebur; Preemergence, Rate 250 g/ha
  Cocklebur plant response rating: 0
cocklebur; Preemergence, Rate 500 g/ha
  Cocklebur plant response rating: 0
cocklebur; Rate 62 g/ha, Postemergence
  Cocklebur plant response rating: 0
cocklebur; [4]
  Plant response rating, Cocklebur: 0
wheat; [1]
  Plant response rating, Wheat: 0
wheat; [2]
  Plant response rating, Wheat: 0
wheat; [3]
  Plant response rating, Wheat: 0
wheat; Preemergence, Rate 125 g/ha
  Wheat plant response rating (0 to 10 scale): 0
wheat; Preemergence, Rate 250 g/ha
  Wheat plant response rating: 2
wheat; Preemergence, Rate 500 g/ha
  Wheat plant response rating: 4
wheat; Rate 62 g/ha, Postemergence
  Wheat plant response rating: 0
Purple nutsedge; [1]
  Plant response rating, Nutsedge: 0
Purple nutsedge; [2]
  Plant response rating, Nutsedge: 0
Purple nutsedge; [3]
  Plant response rating, Nutsedge: 0
Purple nutsedge; Preemergence, Rate 125 g/ha
  Nutsedge plant response rating (0 to 10 scale): 0
Purple nutsedge; Preemergence, Rate 250 g/ha
  Nutsedge plant response rating: 5
Purple nutsedge; Preemergence, Rate 500 g/ha
  Nutsedge plant response rating: 9
Purple nutsedge; Rate 62 g/ha, Postemergence
  Nutsedge plant response rating: 0
Purple nutsedge; [4]
  Plant response rating, Nutsedge: 0
morningglory; [1]
  Plant response rating, Morningglory: 7
morningglory; [2]
  Plant response rating, Morningglory: 7
morningglory; [3]
  Plant response rating, Morningglory: 0
morningglory; Preemergence, Rate 125 g/ha
  Morningglory plant response rating (0 to 10 scale): 0
morningglory; Preemergence, Rate 250 g/ha
  Morningglory plant response rating: 0
morningglory; Preemergence, Rate 500 g/ha
  Morningglory plant response rating: 3
morningglory; Rate 62 g/ha, Postemergence
  Morningglory plant response rating: 7
morningglory; [4]
  Plant response rating, Morningglory: 10
Sugar beet; [1]
  Plant response rating, Sugarbeets: 0
Sugar beet; [2]
  Plant response rating, Sugarbeets: 0
Sugar beet; [3]
  Plant response rating, Sugarbeets: 0
Sugar beet; Preemergence, Rate 125 g/ha
  Sugarbeets plant response rating (0 to 10 scale): 6
Sugar beet; Preemergence, Rate 250 g/ha
  Sugarbeets plant response rating: 6
Sugar beet; Preemergence, Rate 500 g/ha
  Sugarbeets plant response rating: 10
Sugar beet; Rate 62 g/ha, Postemergence
  Sugarbeets plant response rating: 0
Sugar beet; [4]
  Plant response rating, Sugarbeets: 0
Giant foxtail; [1]
  Plant response rating, Giant foxtail: 7
Giant foxtail; [2]
  Plant response rating, Giant foxtail: 8
Giant foxtail; [3]
  Plant response rating, Giant foxtail: 10
Giant foxtail; Preemergence, Rate 125 g/ha
  Giant foxtail plant response rating (0 to 10 scale): 10
Giant foxtail; Preemergence, Rate 250 g/ha
  Giant foxtail plant response rating: 10
Giant foxtail; Preemergence, Rate 500 g/ha
  Giant foxtail plant response rating: 10
Giant foxtail; Rate 62 g/ha, Postemergence
  Giant foxtail plant response rating: 5
Giant foxtail; [4]
  Plant response rating, Giant foxtail: 9
velvetleaf; [1]
  Plant response rating, Velvetleaf: 0
velvetleaf; [2]
  Plant response rating, Velvetleaf: 2
velvetleaf; [3]
  Plant response rating, Velvetleaf: 0
velvetleaf; Preemergence, Rate 125 g/ha
  Velvetleaf plant response rating (0 to 10 scale): 4
velvetleaf; Preemergence, Rate 250 g/ha
  Velvetleaf plant response rating: 5
velvetleaf; Preemergence, Rate 500 g/ha
  Velvetleaf plant response rating: 6
velvetleaf; Rate 62 g/ha, Postemergence
  Velvetleaf plant response rating: 0
velvetleaf; [4]
  Plant response rating, Velvetleaf: 3
crabgrass; [1]
  Plant response rating, Crabgrass: 4
crabgrass; [2]
  Plant response rating, Crabgrass: 8
crabgrass; [3]
  Plant response rating, Crabgrass: 8
crabgrass; Preemergence, Rate 125 g/ha
  Crabgrass plant response rating (0 to 10 scale): 10
crabgrass; Preemergence, Rate 250 g/ha
  Crabgrass plant response rating: 10
crabgrass; Preemergence, Rate 500 g/ha
  Crabgrass plant response rating: 10
crabgrass; Rate 62 g/ha, Postemergence
  Crabgrass plant response rating: 3
crabgrass; [4]
  Plant response rating, Crabgrass: 9
bamyardgrass; [5]
  Plant response rating, Barnyardgrass (0 to 10 scale, 0 is no effect, 10 is complete control): 0
bamyardgrass; [6]
  Barnyardgrass plant response rating (0 to 10 scale, 0 is no effect, 10 is complete control): 0
bamyardgrass; [7]
  Barnyardgrass plant response rating: 0
bamyardgrass; [8]
  Barnyardgrass plant response rating: 7
